Results published in patent US20230295106A1 (priority 2019, published 2023).
Read-outs that look alike come from different tables or passages of the source.

Tests used:
5-HT2A [1] = target: T1, 5-HT2A (Homo sapiens, UniProt P28223); assay: Serotonin 5-HT2A in vitro radioligand binding competition assay ([3H]-DOI); design: Epics Therapeutics S.A. (Belgium) FAST-0505B; host or cells: membrane extracts
5-HT2A [2] = target: T1, 5-HT2A; assay: Serotonin 5-HT2A in vitro cellular IPOne agonism assay (HTRF); type: cell-based; design: host or cells: CHO-K1
rat cortical neurons = assay: Neurite outgrowth in primary neuronal cultures assay; type: cell-based; design: key: A: Statistically significant mean increase as a percent of DMSO control at 10 μM or less; B: No statistically significant mean increase as a percent of DMSO control at 10 μM or less; settings: 72 h, vs DMSO control, at 10 μM or less
Excerpt: Neurite Outgrowth in Primary Neuronal Cultures Assay. Changes in the pattern of neurite outgrowth have been implicated in psychiatric and neurodegenerative disorders as well as traumatic injuries. The discovery of new compounds that can positively affect neuritogenesis are important for developing new therapeutics for neurological diseases. Measurement of neurite outgrowth of rat cortical neurons using an automated image-based assay was used to determine the neuroplastic effects of the compounds of the present invention. The neurite outgrowth assay was performed at Neurofit SAS (France) as described below.
Pregnant Wistar rats (Janvier; France) were used for the study. They were delivered 6 days before their use. Upon arrival at Neurofit animal facility, they were housed one per cage and maintained in a room with controlled temperature (21-22° C.) and a reversed light-dark cycle (12 h/12 h; lights on: 17:30-05:30; lights off: 05:30-17:30) with food and water available ad libitum.
Female Wistar rats of 17 days gestation were killed by cervical dislocation and the fetuses were removed from the uterus. Their brains were placed in ice-cold medium of Leibovitz (L15, Gibco, Fisher bioblock, France). Cortices were dissected and meninges were carefully removed. The cortical neurons were dissociated by trypsinization for 30 min at 37° C. (trypsin-EDTA, Gibco) in presence of 0.1 mg/ml DNAse I (Roche, France). The reaction was stopped by addition of Dulbecco's Modified Eagle Medium (DMEM; Gibco) with 10% of fetal bovine serum (FBS; Gibco). The suspension was triturated with a 10-ml pipette and using a needle syringe 21 G and centrifuged at 350×g for 10 min at room temperature. The pellet of dissociated cells was resuspended in a medium consisting of Neurobasal (Gibco) supplemented with 2% B27 supplement (Gibco), 0.5 mM L-Glutamine (Gibco), an antibiotic-antimicotic mixture. Viable cells were counted in a Neubauer cytometer using the trypan blue exclusion test (Sigma). Cells were seeded at a density of 10000 cells per well in 96-well plate (Costar) precoated with poly-L-lysine. Test compound at different concentrations were added to the cultures. Donepezil (positive control) was tested at 250 nM.
After 72 h (3 days) of plating, cultures were fixed with paraformaldehyde in PBS (4%, Sigma) for 30 min at 4° C. Then, cells were successively permeabilized with 0.1% Triton X100 for 30 min, saturated with PBS containing 3% of BSA and were incubated 1 h with anti-beta III tubulin antibody (Sigma) at 1/10000 in PBS containing 0.5% of BSA. Cells were washed three times with PBS containing 0.5% of BSA, and they were incubated 1 h with goat anti-mouse antibody coupled with AF488 (Invitrogen A11001) diluted at 1/1000 in PBS containing 0.5% of BSA. Finally, nuclei were staining with DAPI 1 mg/ml at 1/1000 in PBS containing 0.5% of BSA. After rinsing with PBS, the plate was filmed and neurite networks were examined and analyzed using High-Content Screening (CellInsight, Thermo Scientific). The average number of neurites per neuron and the average total length of neurites per neuron were the main parameters analyzed. Analysis of data was performed using analysis of variance (ANOVA). The Fisher's Protected Least Significant Difference test was used for multiple comparisons. A p value <0.05 was considered significant. The software used is StatView 5.0 from SAS Institut.

[3] = 5-HT2A Radioligand Binding Activity, competition with [3H]-DOI, membrane extracts
[4] = 5-HT2A IPOne Agonism Activity, CHO-K1 cells, 60 min at 37° C.

T1 sequence (P28223 whole entry): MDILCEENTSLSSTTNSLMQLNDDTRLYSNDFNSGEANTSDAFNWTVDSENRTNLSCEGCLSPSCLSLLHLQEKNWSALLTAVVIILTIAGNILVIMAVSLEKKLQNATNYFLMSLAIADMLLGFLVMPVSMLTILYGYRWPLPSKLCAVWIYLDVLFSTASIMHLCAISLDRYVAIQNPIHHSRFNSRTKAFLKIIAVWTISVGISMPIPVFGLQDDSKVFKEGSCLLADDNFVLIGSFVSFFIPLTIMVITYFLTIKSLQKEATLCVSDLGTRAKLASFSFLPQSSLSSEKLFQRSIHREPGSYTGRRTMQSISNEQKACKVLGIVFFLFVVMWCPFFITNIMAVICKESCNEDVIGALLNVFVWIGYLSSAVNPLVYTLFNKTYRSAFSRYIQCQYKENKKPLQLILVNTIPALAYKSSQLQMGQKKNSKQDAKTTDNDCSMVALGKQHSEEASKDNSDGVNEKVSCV

Compound | IC50 (5-HT2A [1]) [nM] | EC50 (5-HT2A [2]) [nM] | IC50 (5-HT2A [1]; [3]) [nM] | EC50 (5-HT2A [2]; [4]) [nM] | Increase in Neurite Length (rat cortical neurons) | Increase in Neurite Number (rat cortical neurons) | IC50 (5-HT2A [1]; read-out: 5-HT2A Radioligand Binding Activity, competition with [3H]-DOI, membrane extracts) [nM] | EC50 (5-HT2A [2]; read-out: 5-HT2A IPOne Agonism Activity, CHO-K1 cells, 60 min at 37° C.) [nM]
NC1Cc2cc(F)cc3ccn(c23)C1 (stereo not shown) [Compound 17, 8-fluoro-5,6-dihydro-4H-pyrrolo[3,2,1-ij]quinolin-5-amine] | 1000 to 10000 | > 10000 |  |  |  |  |  | 
CCN(CC)C(=O)[C@@H]1C=C(c2cc(OC)cc(OC)c2)CN(C)C1 (single isomer, unassigned) [Compound 6, 5-(3,5-dimethoxyphenyl)-N,N-diethyl-1-methyl-1,2,3,6-tetrahydropyridine-3-carboxamide] |  |  | 1000 to 10000 | 101 to 1000 | A | A |  | 
CCN(CC)C(=O)[C@@H]1C=C(c2cccc3[nH]ccc23)CN(C)C1 (single isomer, unassigned) [Compound 12, N,N-diethyl-5-(1H-indol-4-yl)-1-methyl-1,2,3,6-tetrahydropyridine-3-carboxamide] |  |  |  |  | A | A |  | 
CCN(CC)C(=O)[C@@H]1C=C(c2ccccc2OC)CN(C)C1 (single isomer, unassigned) [Compound 7, N,N-diethyl-5-(2-methoxyphenyl)-1-methyl-1,2,3,6-tetrahydropyridine-3-carboxamide] |  |  | 10 to 100 | 10 to 100 | B | B |  | 
CCN(CC)C(=O)[C@@H]1C=C(c2cccc(OC)c2)CN(C)C1 (single isomer, unassigned) [Compound 9, N,N-diethyl-5-(3-methoxyphenyl)-1-methyl-1,2,3,6-tetrahydropyridine-3-carboxamide] |  |  | 10 to 100 | 10 to 100 | A | A |  | 
COc1cc2c3c(ccn3CC(N)C2)c1 (stereo not shown) [Compound 25, 8-methoxy-5,6-dihydro-4H-pyrrolo[3,2,1-ij]quinolin-5-amine] | > 10000 | > 10000 |  |  |  |  |  | 
CCN(CC)C1Cc2cccc3ccn(c23)C1 (stereo not shown) [Compound 16, N,N-diethyl-5,6-dihydro-4H-pyrrolo[3,2,1-]quinolin-5-amine] | 101 to 1000 | 101 to 1000 |  |  | A | A |  | 
CCN(CC)C(=O)[C@@H]1C=C(c2ccccc2OC)CN(C)C1 (single isomer, unassigned) [Compound 8, N,N-diethyl-5-(2-methoxyphenyl)-1-methyl-1,2,3,6-tetrahydropyridine-3-carboxamide] |  |  | 101 to 1000 | 101 to 1000 | A | A |  | 
CN(C)C1Cc2cccc3ccn(c23)C1 (single isomer, unassigned) [Compound 14, N,N-dimethyl-5,6-dihydro-4H-pyrrolo[3,2,1-ij]quinolin-5-amine] | 101 to 1000 | > 10000 |  |  | A | A |  | 
NC1Cc2c(Cl)ccc3ccn(c23)C1 (stereo not shown) [Compound 23, 7-chloro-5,6-dihydro-4H-pyrrolo[3,2,1-ij]quinolin-5-amine] | 1000 to 10000 | 1000 to 10000 |  |  |  |  |  | 
CCN(CC)C(=O)[C@@H]1C=C(c2cccc3[nH]ccc23)CN(C)C1 (single isomer, unassigned) [Compound 11, N,N-diethyl-5-(1H-indol-4-yl)-1-methyl-1,2,3,6-tetrahydropyridine-3-carboxamide] |  |  |  |  | A | A |  | 
NC1Cc2c(F)ccc3ccn(c23)C1 (stereo not shown) [Compound 19, 7-fluoro-5,6-dihydro-4H-pyrrolo[3,2,1-ij]quinolin-5-amine] | > 10000 | > 10000 |  |  |  |  |  | 
CCN(CC)C(=O)[C@@H]1C=C(c2cccc(OC)c2)CN(C)C1 (single isomer, unassigned) [Compound 10, N,N-diethyl-5-(3-methoxyphenyl)-1-methyl-1,2,3,6-tetrahydropyridine-3-carboxamide] |  |  | 101 to 1000 | 101 to 1000 | A | A |  | 
CN(C)C1Cc2cccc3ccn(c23)C1 (single isomer, unassigned) [Compound 15, N,N-dimethyl-5,6-dihydro-4H-pyrrolo[3,2,1-ij]quinolin-5-amine] |  |  |  |  | B | B | 101 to 1000 | > 10000
NC1Cc2cc(Cl)cc3ccn(c23)C1 (stereo not shown) [Compound 21, 8-chloro-5,6-dihydro-4H-pyrrolo[3,2,1-ij]quinolin-5-amine] | 1000 to 10000 | 1000 to 10000 |  |  |  |  |  | 
CCN(CC)C(=O)[C@@H]1C=C(c2cc(OC)cc(OC)c2)CN(C)C1 (single isomer, unassigned) [Compound 5, 5-(3,5-dimethoxyphenyl)-N,N-diethyl-1-methyl-1,2,3,6-tetrahydropyridine-3-carboxamide] |  |  | 101 to 1000 | 10 to 100 | A | A |  | 
NC1Cc2cccc3[nH]cc(c23)C1 (stereo not shown) [Compound 27, 1,3,4,5-tetrahydrobenzo[cd]indol-4-amine] | 1000 to 10000 | 1000 to 10000 |  |  | A | A |  | 
NC1Cc2cccc3ccn(c23)C1 (stereo not shown) [Compound 13, 5,6-dihydro-4H-pyrrolo[3,2,1-ij]quinolin-5-amine] | 1000 to 10000 | > 10000 |  |  | A | A |  | 
